Assay results from patent US20240024273A1, “TOPICAL ADMINISTRATION OF 2-(DIETHYLAMINO)ETHYL 2-(4-ISOBUTYLPHENYL)PROPRIONATE FOR TREATMENT OF DISEASES” (TECHFIELDS PHARMA CO., LTD., priority 2020, published 2024).

System: Mild to Moderate Osteoarthritis of the Knee
Assay: Phase 2 study: WOMAC difficulty performing daily activities subscale score
Format: in vivo, human
Settings: for Change of WOMAC Difficulty performing daily activities score from baseline (±SEM) / Percentage of improvement from baseline, WOMAC Difficulty performing daily activities score: all patients taken as active; for WOMAC Difficulty Performing Daily Activities Subscale Score, Avg.: Avg. of all patients; for WOMAC Difficulty Performing Daily Activities Subscale Score, Avg. / WOMAC Difficulty Performing Daily Activities Subscale Score: blinded; for WOMAC Difficulty Performing Daily Activities Subscale Score: individual patient
Text: This is a Phase 2, multicenter, randomized, double blind (within dose), placebo controlled, parallel group, proof of concept, and dose range finding study to evaluate the efficacy, safety, and PK of 2-(diethylamino)ethyl 2-(4-isobutylphenyl)propionate hydrochloride spray in adult subjects with clinically symptomatic mild to moderate OA of the knee. For subjects with bilateral knee pain, both knees will be treated, but the most symptomatic knee (i.e., the most painful knee as measured by the Western Ontario and McMaster University Osteoarthritis Index [WOMAC® 3.1] pain subscale score at Screening) will be designated as the target knee for efficacy analyses. For subjects with unilateral knee pain, only the symptomatic (target) knee will be treated.
After a Screening Period of up to 3 weeks and radiographic evaluation of the target knee joint space, a subject will be randomly assigned to 1 of 3 treatment groups in a 1:1:1 ratio with a 2:1 ratio of active:placebo within each treatment group (ie, 2 subjects to active treatment and 1 subject to placebo): • Group A: 8.75 mg 2-(diethylamino)ethyl 2-(4-isobutylphenyl)propionate/knee (2 sprays/knee, one spray to the medial surface and one spray to the lateral surface of the knee), twice daily (BID, approximately every 12 hours; n=50) or placebo (2 sprays/knee), BID (approximately every 12 hours; n=25) for a total of 4 sprays per knee per day; • Group B: 17.5 mg 2-(diethylamino)ethyl 2-(4-isobutylphenyl)propionate/knee (4 sprays/knee, one spray to the medial surface and one spray to the lateral surface of the knee, and one spray to front and one spray to the back of the knee), BID (approximately every 12 hours; n=50) or placebo (4 sprays/knee), BID (approximately every 12 hours; n=25) for a total of 8 sprays per knee per day; • Group C: 35 mg 2-(diethylamino)ethyl 2-(4-isobutylphenyl)propionate/knee (8 sprays/knee, each spray is to be applied to a different non-overlapping area around the knee, and the areas are to be uniformly distributed around the knee), BID (approximately every 12 hours; n=50) or placebo (8 sprays/knee), BID (approximately every 12 hours; n=25) for a total of 16 sprays per knee per day.
The VAS version of the WOMAC will be used for the Primary and Secondary Efficacy Endpoints. Efficacy endpoints will be assessed at Screening and Baseline (Day 1) and at the Week 2, Week 4, Week 8, and Week 12/EOS visits.
3.9.2. Secondary Efficacy Endpoints: • 1. Change from Baseline in the WOMAC (VAS) pain subscale score for the target knee at 2, 4, and 8 weeks of treatment; • 2. Change from Baseline in the WOMAC (VAS) stiffness subscale scores for the target knee and WOMAC (VAS) functional ability subscale scores at 2, 4, 8, and 12 weeks of treatment; • 3. Change from Baseline in the overall WOMAC (VAS) score at 2, 4, 8, and 12 weeks of treatment.
The Secondary Efficacy Endpoints, change from Baseline in the WOMAC subscale scores for pain, stiffness, and functional ability, and overall WOMAC score at 2, 4, 8, and 12 weeks of treatment, will be analyzed using the same methods as for the Primary Efficacy Endpoint.
To determine this, we assumed that all patients received 2-(diethylamino)ethyl 2-(4-isobutylphenyl)propionate, active drug treatment (i.e. all patients who received 2-(diethylamino)ethyl 2-(4-isobutylphenyl)propionate or placebo treatment for 12 weeks or mixed up treatment during the 12-week treatment, as 2-(diethylamino)ethyl 2-(4-isobutylphenyl)propionate-treated). Based on this assumption, that is, to treat this trial as an open-label study and that all patients received active treatment, we conducted efficacy analysis using top-line efficacy datasets prepared by CRO and the re-analysis results are presented in the following tables (Tables 29-47). […] (William G. Bensen, Justus J. Fiechtner, James 1. McMillen, et. al. Treatment of Osteoarthritis with Celecoxib. Mayo Clin Proc, November 1999. Vol 74, 1095-1105.)

[1] = 35 mg/knee (BID), Week 8 (day 56)
[2] = 35 mg/knee (BID), Week 12 (day 84)
[3] = Middle Dose (4 spray/knee, 17.5 mg/knee) Cohort, Day 1
[4] = Middle Dose (4 spray/knee, 17.5 mg/knee) Cohort, Week 4

SMILES: CCN(CC)CCOC(=O)C(C)c1ccc(CC(C)C)cc1 (stereo not shown) [2-(diethylamino)ethyl 2-(4-isobutylphenyl)propionate]
- Percentage of improvement from baseline, WOMAC Difficulty performing daily activities score, adjusted by […] of the Testing Drug Amount [1]: −55.1%
- Change of WOMAC Difficulty performing daily activities score from baseline (±SEM) [1]: −18.4(±2.6) mm
- Percentage of improvement from baseline, WOMAC Difficulty performing daily activities score [1]: −32.1%
- Change of WOMAC Difficulty performing daily activities score from baseline (±SEM), adjusted by […] of the Testing Drug Amount [2]: −35.8(±4.8) mm
- Percentage of improvement from baseline, WOMAC Difficulty performing daily activities score, adjusted by […] of the Testing Drug Amount [2]: −62.4%
- Change of WOMAC Difficulty performing daily activities score from baseline (±SEM) [2]: −20.9(±2.8) mm
- Percentage of improvement from baseline, WOMAC Difficulty performing daily activities score [2]: −36.4%
- reduction of difficulty performing daily activities WOMAC from baseline to week 12 (5 patients on second batch active drug kits): 65.1-100%
- WOMAC Difficulty Performing Daily Activities Subscale Score, Avg. (35 mg/knee (8 spray/knee), Day 1): 57.4
- WOMAC Difficulty Performing Daily Activities Subscale Score, Avg. (35 mg/knee (8 spray/knee), Follow-up): 37.0
- WOMAC Difficulty Performing Daily Activities Subscale Score, Avg. (35 mg/knee (8 spray/knee), Week 2): 48.0
- WOMAC Difficulty Performing Daily Activities Subscale Score, Avg. (35 mg/knee (8 spray/knee), Week 4): 44.0
- WOMAC Difficulty Performing Daily Activities Subscale Score, Avg. (35 mg/knee (8 spray/knee), Week 8): 39.0
- WOMAC Difficulty Performing Daily Activities Subscale Score, Avg. (35 mg/knee (8 spray/knee), Week 12): 36.5
- WOMAC Difficulty Performing Daily Activities Subscale Score, Avg. [3]: 63.4
- WOMAC Difficulty Performing Daily Activities Subscale Score, Avg. (Middle Dose (4 spray/knee, 17.5 mg/knee) Cohort, Follow-up): 40.3
- WOMAC Difficulty Performing Daily Activities Subscale Score, Avg. (Middle Dose (4 spray/knee, 17.5 mg/knee) Cohort, Week 2): 48.1
- WOMAC Difficulty Performing Daily Activities Subscale Score, Avg. [4]: 42.3
- WOMAC Difficulty Performing Daily Activities Subscale Score, Avg. (Middle Dose (4 spray/knee, 17.5 mg/knee) Cohort, Week 8): 39.3
- WOMAC Difficulty Performing Daily Activities Subscale Score, Avg. (Middle Dose (4 spray/knee, 17.5 mg/knee) Cohort, Week 12): 36.5
- WOMAC Difficulty Performing Daily Activities Subscale, WOMAC VAS Score (Patient 1056, second batch active drug kits, Day 1): 39.6 mm
- WOMAC Difficulty Performing Daily Activities Subscale, WOMAC VAS Score (Patient 1056, second batch active drug kits, Follow Up): 11.6 mm
- WOMAC Difficulty Performing Daily Activities Subscale, WOMAC VAS Score (Patient 1056, second batch active drug kits, Week 2): 27.1 mm
- WOMAC Difficulty Performing Daily Activities Subscale, WOMAC VAS Score (Patient 1056, second batch active drug kits, Week 4): 24.4 mm
- WOMAC Difficulty Performing Daily Activities Subscale, WOMAC VAS Score (Patient 1056, second batch active drug kits, Week 8): 25.2 mm
- WOMAC Difficulty Performing Daily Activities Subscale, WOMAC VAS Score (Patient 1056, second batch active drug kits, Week 12): 18.1 mm
- WOMAC Difficulty Performing Daily Activities Subscale, WOMAC VAS Score (Patient 1064, second batch active drug kits, Day 1): 33.6 mm
- WOMAC Difficulty Performing Daily Activities Subscale, WOMAC VAS Score (Patient 1064, second batch active drug kits, Follow Up): 0.4 mm
- WOMAC Difficulty Performing Daily Activities Subscale, WOMAC VAS Score (Patient 1064, second batch active drug kits, Week 2): 24.4 mm
- WOMAC Difficulty Performing Daily Activities Subscale, WOMAC VAS Score (Patient 1064, second batch active drug kits, Week 4): 1.1 mm
- WOMAC Difficulty Performing Daily Activities Subscale, WOMAC VAS Score (Patient 1064, second batch active drug kits, Week 8): 0.5 mm
- WOMAC Difficulty Performing Daily Activities Subscale, WOMAC VAS Score (Patient 1064, second batch active drug kits, Week 12): 0.6 mm
- WOMAC Difficulty Performing Daily Activities Subscale, WOMAC VAS Score (Patient 1535, second batch active drug kits, Day 1): 51.6 mm
- WOMAC Difficulty Performing Daily Activities Subscale, WOMAC VAS Score (Patient 1535, second batch active drug kits, Follow Up): 0.2 mm
- WOMAC Difficulty Performing Daily Activities Subscale, WOMAC VAS Score (Patient 1535, second batch active drug kits, Week 2): 3.3 mm
- WOMAC Difficulty Performing Daily Activities Subscale, WOMAC VAS Score (Patient 1535, second batch active drug kits, Week 4): 2.8 mm
- WOMAC Difficulty Performing Daily Activities Subscale, WOMAC VAS Score (Patient 1535, second batch active drug kits, Week 8): 3.5 mm
- WOMAC Difficulty Performing Daily Activities Subscale, WOMAC VAS Score (Patient 1535, second batch active drug kits, Week 12): 0.2 mm
- WOMAC Difficulty Performing Daily Activities Subscale, WOMAC VAS Score (Patient 1539, second batch active drug kits, Day 1): 73.0 mm
- WOMAC Difficulty Performing Daily Activities Subscale, WOMAC VAS Score (Patient 1539, second batch active drug kits, Follow Up): 4.4 mm
- WOMAC Difficulty Performing Daily Activities Subscale, WOMAC VAS Score (Patient 1539, second batch active drug kits, Week 2): 47.8 mm
- WOMAC Difficulty Performing Daily Activities Subscale, WOMAC VAS Score (Patient 1539, second batch active drug kits, Week 4): 43 mm
- WOMAC Difficulty Performing Daily Activities Subscale, WOMAC VAS Score (Patient 1539, second batch active drug kits, Week 8): 5.5 mm
- WOMAC Difficulty Performing Daily Activities Subscale, WOMAC VAS Score (Patient 1539, second batch active drug kits, Week 12): 8.4 mm
- WOMAC Difficulty Performing Daily Activities Subscale, WOMAC VAS Score (Patient 9032, second batch active drug kits, Day 1): 16.4 mm
- WOMAC Difficulty Performing Daily Activities Subscale, WOMAC VAS Score (Patient 9032, second batch active drug kits, Follow Up): 2.8 mm
- WOMAC Difficulty Performing Daily Activities Subscale, WOMAC VAS Score (Patient 9032, second batch active drug kits, Week 2): 6.0 mm
- WOMAC Difficulty Performing Daily Activities Subscale, WOMAC VAS Score (Patient 9032, second batch active drug kits, Week 4): 7.1 mm
- WOMAC Difficulty Performing Daily Activities Subscale, WOMAC VAS Score (Patient 9032, second batch active drug kits, Week 8): 3.4 mm
- WOMAC Difficulty Performing Daily Activities Subscale, WOMAC VAS Score (Patient 9032, second batch active drug kits, Week 12): 2.5 mm
- WOMAC Difficulty Performing Daily Activities Subscale Score [3]: 64.5
- WOMAC Difficulty Performing Daily Activities Subscale Score [4]: 66.8
